These results are taken from patent US9615577B2, “Herbicidally active cyclic dione compounds, or derivatives therefor, substituted by a phenyl which has an alkynyl-containing substituent” (Syngenta Limited, priority 2012, dated 2017).

What all share (assay type): in vivo
For assay [1], the system named is Brachiaria plantaginea (BRAPL). Description: Test 1B glasshouse assay for herbicidal activity, post-emergence. To be noted: Urochloa plantaginea; for pest or weed control at 60 g/ha: 60 g/ha application rate; for pest or weed control at 30 g/ha: 30 g/ha application rate; for pest or weed control at 125 g/ha: 125 g/ha application rate. The procedure, abridged: (§1)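 Pots of soil were sown and held one day for pre-emergence or about 12 days for post-emergence treatment, then sprayed with an aqueous solution containing 0.2% v/v X-77 adjuvant, prepared from a 50 g/liter IF50 formulation, at rate-dependent concentration. Visual damage scoring followed at 20 or 15 DAA respectively.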

In assay [2] the test system is Ipomoea hederacea (IPOHE). As to the kind of experiment: Test 1A glasshouse assay for herbicidal activity, pre-emergence. To be noted: 312 h, evaluated after 13 days, read-out: percentage phytotoxicity IPOHE. The procedure, abridged: (§2)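 Damage is rated by eye as percent phytotoxicity on a 0–100 scale, 13 days after treatment. Compound is sprayed in acetone/water (50:50) with 0.5% Tween 20 onto pots one day (pre-emergence) or eight days (post-emergence) after sowing, with plants kept at 24/16 °C and 14 h light.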

The test system of assay [3] is Solanum nigrum (SOLNI). The assay is described as above. To be noted: 312 h, evaluated after 13 days, read-out: percentage phytotoxicity SOLNI. The procedure, abridged:
as §2

In assay [4] the test system is Ipomoea hederacea (IPOHE). Description: Test 1A glasshouse assay for herbicidal activity, post-emergence. Particulars: 312 h, evaluated after 13 days, read-out: percentage phytotoxicity IPOHE. The procedure, abridged:
as §2

The subject of assay [5] is Solanum nigrum (SOLNI). Described as above. To be noted: 312 h, evaluated after 13 days, read-out: percentage phytotoxicity SOLNI. The essentials:
as §2

Assay [6] concerns Brachiaria plantaginea (BRAPL). As to the kind of experiment: Test 1B glasshouse assay for herbicidal activity, pre-emergence. Particulars: Urochloa plantaginea, 480 h, 20 DAA, read-out: percentage phytotoxicity BRAPL. The procedure, abridged: as §1
In assay [7] the test system is Echinochloa crus-galli (ECHCG). As to the kind of experiment: Biological Example 2 comparative herbicidal data, post-emergence glasshouse screen. Particulars: 312 h, read-out: Post-emergence herbicidal activities (percentage phytotoxicity) ECHCG; for pest or weed control at 15.625 g/ha: 15.625 g/ha application rate; for pest or weed control at 62.5 g/ha: 62.5 g/ha application rate; for pest or weed control at 8 g/ha: 8 g/ha application rate; for pest or weed control at 30 g/ha: 30 g/ha application rate. The procedure, abridged: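 Plants grown 8 days in a glasshouse (24/16°C day/night, 14 h light, 65% humidity) were sprayed with compound in acetone/water (50:50) containing 0.5% Tween 20. They were kept under the same conditions and watered twice daily. Phytotoxicity was scored visually after 13 days (0 = no damage, 100 = total damage).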

Assay [8] concerns Abutilon theophasti Medik. (ABUTH). As to the kind of experiment: Test 1A glasshouse assay for herbicidal activity, pre-emergence. To be noted: 312 h, evaluated after 13 days, read-out: percentage phytotoxicity ABUTH. The essentials:
as §2

In assay [9] the test system is Amarantus retroflexus (AMARE). Description: Biological Example 2 comparative herbicidal data, post-emergence glasshouse screen. Particulars: Amaranthus retroflexus, read-out: Post-emergence herbicidal activities (percentage phytotoxicity) AMARE; for pest or weed control at 8 g/ha: 8 g/ha application rate; for pest or weed control at 30 g/ha: 30 g/ha application rate.

In assay [10] the test system is Abutilon theophasti Medik. (ABUTH). Description: Test 1A glasshouse assay for herbicidal activity, post-emergence. To be noted: 312 h, evaluated after 13 days, read-out: percentage phytotoxicity ABUTH. The essentials: as §2
The test system is the same in assay [11]. As to the kind of experiment: Biological Example 2 comparative herbicidal data, post-emergence glasshouse screen. Particulars: read-out: Post-emergence herbicidal activities (percentage phytotoxicity) ABUTH; for pest or weed control at 8 g/ha: 8 g/ha application rate; for pest or weed control at 30 g/ha: 30 g/ha application rate.

Structures are written as SMILES.

Molecule `CC#Cc1ccc(C2C(=O)C3CCC(C3)C2=O)c(C)c1` (single isomer, unassigned) [Compound A-2] gave a pest or weed control at 60 g/ha in assay [1] of 100%. Moreover, the pest or weed control at 250 g/ha in assay [2] is 10%; in the assay with Solanum nigrum (SOLNI) [3] it was 0%; in [4] it was 30%; with Solanum nigrum (SOLNI) [5] it was 20%. The pest or weed control at 500 g/ha in assay [6] stood at 100%.

With `CC#Cc1ccc(C2C(=O)C(C)(C)OC(C)(C)C2=O)c(C)c1` [Compound A-1], the pest or weed control at 60 g/ha in assay [1] worked out at 90%. For the same molecule, in [7], the pest or weed control at 15.625 g/ha came out at 20%. In [7], the pest or weed control at 62.5 g/ha was determined as 90%. Moreover, the pest or weed control at 250 g/ha in assay [2] stood at 0%; with Solanum nigrum (SOLNI) [3] it was 0%; in assay [4], 90%; with Solanum nigrum (SOLNI) [5] it was 30%. The pest or weed control at 500 g/ha in assay [6] turned out to be 90%.

Take `CC#Cc1cc(C)c(C2C(=O)C3CCC(C3)C2=O)c(C)c1` (stereo not drawn) [Compound A-5]: the pest or weed control at 30 g/ha in assay [1] was determined as 90%; in assay [7], 100%; in assay [9] it was 10%; in assay [10] it was 0%; in [11], 0%. Further, the pest or weed control at 60 g/ha in [1] came out at 100%. Also, in [1], the pest or weed control at 125 g/ha worked out at 100%. Further, the pest or weed control at 500 g/ha in assay [1] (500 g/ha application rate) and in assay [6] was 100% throughout. Moreover, the pest or weed control at 8 g/ha in assay [7] was found to be 80%; in assay [9] it was 0%; in [11], 0%. Also, the figures for the pest or weed control at 250 g/ha in assay [8] and in [10] were 0% and 60%, respectively.

Regarding `Cc1cc(C#CCl)cc(C)c1C1C(=O)C2CCC(C2)C1=O` (stereo not drawn) [Compound A-6], in [1], the pest or weed control at 30 g/ha amounted to 90%. This molecule returned a pest or weed control at 60 g/ha in assay [1] of 100%. The pest or weed control at 15.625 g/ha in [7] amounted to 90%. For the same molecule, the pest or weed control at 62.5 g/ha in [7] stood at 100%; in assay [4] (62.5 g/ha), 30%; in the assay on Solanum nigrum (SOLNI) [5] (62.5 g/ha), 20%. Also, the pest or weed control at 250 g/ha turned out to be 10% in assay [2], 20% with Solanum nigrum (SOLNI) [3], 20% in assay [4] and 20% in the assay with Solanum nigrum (SOLNI) [5]. The pest or weed control at 125 g/ha in assay [6] came to 80%.

For `Cc1cc(C#CCl)cc(C)c1C1C(=O)CC(CC2CCOCC2)CC1=O` (stereo not drawn) [Compound A-8], the pest or weed control at 30 g/ha in assay [1] was 90%. Besides, in [7], the pest or weed control at 15.625 g/ha came to 90%. In addition, the pest or weed control at 62.5 g/ha in [7] was determined as 100%. For the same molecule, the pest or weed control at 250 g/ha stood at 30% in [2], 70% in the assay with Solanum nigrum (SOLNI) [3], 70% in assay [4] and 80% with Solanum nigrum (SOLNI) [5].

With `CC#Cc1cc(C)c(C2C(=O)CC(CC3CCOCC3)CC2=O)c(C)c1` (stereo not drawn) [Compound A-9], the pest or weed control at 15.625 g/ha in [7] stood at 100%. For the same molecule, the pest or weed control at 62.5 g/ha in assay [7] was determined as 100%. The pest or weed control at 250 g/ha in [2] was 20%; in the assay on Solanum nigrum (SOLNI) [3] it was 70%; in assay [4] it was 50%; in the assay with Solanum nigrum (SOLNI) [5] it was 80%.

In assay [1], `CC#Cc1cc(C)c(C2C(=O)C3CCC(C3)C2=O)c(OC)c1` (stereo not drawn) [Compound A-10] gave a pest or weed control at 30 g/ha of 90%. In addition, the pest or weed control at 125 g/ha in [1] worked out at 100%; in assay [6], 80%. For the same molecule, the pest or weed control at 250 g/ha turned out to be 0% in assay [8] and 80% in assay [10].

In the case of `CC#Cc1cc(Cl)c(C2C(=O)C3CCC(C3)C2=O)c(OC)c1` (stereo not drawn) [Compound A-12], the pest or weed control at 30 g/ha came out at 70% in assay [1], 100% in assay [7], 0% in assay [9] and 40% in assay [11]. This molecule also showed a pest or weed control at 125 g/ha in [1] of 100%. Further, the pest or weed control at 8 g/ha in assay [7] was determined as 90%; in assay [9] it was 0%; in assay [11], 10%. In addition, the pest or weed control at 62.5 g/ha in assay [8] (62.5 g/ha) and in [10] (62.5 g/ha) was 0% in each case. Moreover, the pest or weed control at 250 g/ha in assay [8] was 0%; in [10], 50 to 60%; in [6], 100%.

The molecule `CC#Cc1cc(C)c(C2C(=O)CC(c3ccccn3)CC2=O)c(C)c1` (stereo not drawn) [Compound A-13] showed a pest or weed control at 125 g/ha in assay [1] of 100%. Moreover, the figures for the pest or weed control at 8 g/ha in [7], in [9] and in assay [11] were 80%, 0% and 0%, respectively. For the same molecule, the pest or weed control at 30 g/ha was 80% in assay [7]; 30% in assay [8] (30 g/ha); 30% in assay [9]; 40% in assay [10]; 40% in assay [11]. Moreover, the pest or weed control at 250 g/ha in assay [8] is 70%; in assay [10] it was 80%; in [6] it was 90%.

In the case of `CC#Cc1cc(C)c(C2=C(OC(=O)OC)CC(c3ccccn3)CC2=O)c(C)c1` (stereo not drawn) [Compound A-14], the pest or weed control at 30 g/ha in assay [1] was found to be 70%. In addition, the pest or weed control at 125 g/ha in assay [1] is 100%. Further, the figures for the pest or weed control at 250 g/ha in assay [8], in assay [10] and in assay [6] were 70%, 80% and 90%, respectively.

Regarding `CC#Cc1cc(C)c(C2=C(OC(C)=O)CC(c3ccccn3)CC2=O)c(C)c1` (stereo not drawn) [Compound A-15], the pest or weed control at 30 g/ha in [1] stood at 100%; in assay [10], 20%. Besides, the figures for the pest or weed control at 125 g/ha in assay [1] and in assay [6] were 100% and 90%, respectively. Further, the figures for the pest or weed control at 250 g/ha in assay [8] and in assay [10] were 50% and 80%, respectively.

For `CC#Cc1cc(Cl)c(C2C(=O)C3CCC(C3)C2=O)c(OCC)c1` (stereo not drawn) [Compound A-16], in assay [8], the pest or weed control at 250 g/ha was 70%. Moreover, in [10], the pest or weed control at 30 g/ha turned out to be 60% and the pest or weed control at 250 g/ha stood at 60%.

As to `CC#Cc1cc(Cl)c(C2C(=O)C3CCC(C)(C2=O)C3(C)C)c(OC)c1` (stereo not drawn) [Compound A-17], the pest or weed control at 250 g/ha in assay [8] was 70%; in assay [10], 10%.

Regarding `CC#Cc1cc(Cl)c(C2C(=O)CC3(CCOCC3)CC2=O)c(OC)c1` [Compound A-20, 9-(2-Chloro-6-methoxy-4-prop-1-ynyl-phenyl)-3-oxa-spiro[5.5]undecane-8,10-dione], the pest or weed control at 8 g/ha in assay [7] came out at 100%; in assay [9] it was 10%; in [10] (8 g/ha), 50%; in assay [11], 50%. The pest or weed control at 30 g/ha in assay [7] is 100%; in assay [9], 80%; in assay [10] it was 80%; in assay [11] it was 80%. Further, the pest or weed control at 250 g/ha in assay [8] and in assay [10] was 80% in each case.

Regarding `CC#Cc1cc(C)c(C2C(=O)CC(CCSC)CC2=O)c(C)c1` (stereo not drawn) [Compound A-21, 2-(2,6-Dimethyl-4-prop-1-ynyl-phenyl)-5-(2-methylsulfanyl-ethyl)cyclohexane-1,3-dione], the results for the pest or weed control at 8 g/ha in [7], in [9] and in [11] were 80%, 30% and 70%, respectively. In addition, the pest or weed control at 30 g/ha in assay [7] stood at 80%; in [9], 80%; in [10], 10%; in [11] it was 10%. Also, the results for the pest or weed control at 250 g/ha in assay [8] and in assay [10] were 10% and 60%, respectively.
